Earlier results in patent publication US20210352892A1, “MACROMOLECULAR AND NONPARTICULATE AGROCHEMICALS TO REDUCE VAPOR DRIFT” (University of Utah Research Foundation, priority 2019, published 2021).

Details: at 25 ° C.

In the case of `COc1c(Cl)ccc(Cl)c1C(=O)O` [dicamba, 2-methoxy-3,6-dicholorobenzoic acid], the vapor pressure is listed as 4.5 mPa.
